≈ marks a conversion by molar mass, not a printed value.
Assays:
Assay type in all cases: functional
[1] = test system: HCT-8; experiment: Cytotoxicity against human HCT8 cells after 5 days by MTT assay; conditions: HCT-8, 120 h, read-out: ED50 (the source's name)
[2] = test system: KB; experiment: Cytotoxicity against human KB cells after 5 days by MTT assay; conditions: 120 h, read-out: ED50 (the source's name)
[3] = test system: A549; experiment: Cytotoxicity against human A549 cells after 5 days by MTT assay; conditions: A549, 120 h, read-out: ED50 (the source's name)

Row | Compound | EC50 [1] | EC50 [2] | EC50 [3]
1 | CC(C)=CCc1c(CCCc2ccc(O)cc2O)cc(O)c(O)c1CC=C(C)C [KAZINOL F] | > 10 µg/mL | > 10 µg/mL | > 10 µg/mL
2 | CC(C)=CCc1cc(-c2oc3c(CC=C(C)C)c(O)cc(O)c3c(=O)c2O)cc(O)c1O [BROUSSONOL D] | > 10 µg/mL | 4.15 µg/mL (≈ 9.46 µM) | > 10 µg/mL
3 | CC(C)=CCc1cc(-c2oc3cc(O)c(CC=C(C)C)c(O)c3c(=O)c2O)cc(O)c1O [BROUSSONOL E] | > 10 µg/mL | > 10 µg/mL | > 10 µg/mL
4 | C=CC(C)(C)c1c(O)cc(O)c2c(=O)c(O)c(-c3cc(O)c4c(c3)C=CC(C)(C)O4)oc12 [BROUSSONOL A] | 9.1 µg/mL (≈ 20.8 µM) | > 10 µg/mL | 8.74 µg/mL (≈ 20 µM)
5 | COc1cc(O)ccc1CCCc1cc(O)c(O)c(CC=C(C)C)c1CC=C(C)C [KAZINOL J] | > 10 µg/mL | > 10 µg/mL | > 10 µg/mL
6 | CC(C)=CCc1cc(-c2oc3c4c(cc(O)c3c(=O)c2O)OC(C)C4(C)C)cc(O)c1O (stereo unspecified) [BROUSSONOL C] | 9.63 µg/mL (≈ 22 µM) | > 10 µg/mL | 7.77 µg/mL (≈ 17.7 µM)
7 | CC1Oc2cc(O)c3c(=O)c(O)c(-c4cc(O)c5c(c4)C=CC(C)(C)O5)oc3c2C1(C)C (stereo unspecified) [BROUSSONOL B] | 8.8 µg/mL (≈ 20.2 µM) | > 10 µg/mL | 5.52 µg/mL (≈ 12.6 µM)

From ChEMBL document CHEMBL1156342, “Five new diprenylated flavonols from the leaves of Broussonetia kazinoki” (2001)
